Source: PMC11451537, “P2X7 receptors exhibit at least three modes of allosteric antagonism” (Science Advances, 2024)
Numbering of substitutions follows the chain as printed.

Assays:
rP2X7 = target: T1, rP2X7 (Rattus norvegicus, UniProt Q64663); experiment: TEVC recovery of current after complete inhibition (IC100), rP2X7; details: 120 s buffer wash, 100 μM ATP
T1 sequence (Q64663 1-595): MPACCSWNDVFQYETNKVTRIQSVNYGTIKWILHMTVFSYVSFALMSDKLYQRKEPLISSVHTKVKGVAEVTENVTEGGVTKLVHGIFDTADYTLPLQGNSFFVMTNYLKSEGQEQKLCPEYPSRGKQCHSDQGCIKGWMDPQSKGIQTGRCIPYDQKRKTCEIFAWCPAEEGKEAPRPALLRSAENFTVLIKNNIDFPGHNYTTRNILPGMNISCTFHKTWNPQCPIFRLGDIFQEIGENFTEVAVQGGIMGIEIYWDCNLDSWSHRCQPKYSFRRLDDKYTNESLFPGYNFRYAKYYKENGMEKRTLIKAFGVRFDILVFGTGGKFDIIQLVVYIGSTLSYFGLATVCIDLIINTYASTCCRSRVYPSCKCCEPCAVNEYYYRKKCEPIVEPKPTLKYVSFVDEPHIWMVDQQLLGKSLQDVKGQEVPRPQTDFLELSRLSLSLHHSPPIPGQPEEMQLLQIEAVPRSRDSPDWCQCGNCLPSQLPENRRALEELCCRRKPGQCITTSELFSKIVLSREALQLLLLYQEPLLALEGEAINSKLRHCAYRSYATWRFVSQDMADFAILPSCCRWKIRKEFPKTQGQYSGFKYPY

rP2X7-F103A = target: T2, rP2X7-F103A (Rattus norvegicus, UniProt Q64663, F103A); experiment: TEVC inhibition dose-response, rP2X7-F103A mutant; format: cell-based; details: for IC50: reduced expression and variable response to ATP, read-out: IC50 (inhibitory potency), F103A
T2 sequence (Q64663 1-595 F103A): T1 sequence (Q64663 1-595) with F103A
Source text: (§1) Structural determination of the full-length, wild-type rP2X7 was completed using a construct previously described containing no truncations or mutations ([16]). Furthermore, the rP2X7-WT construct used for electrophysiology experiments is unmodified full-length, wild-type rP2X7 with no green fluorescent protein (GFP), protease sites, or affinity tags present. The hP2X1-WT, hP2X2-WT, hP2X3-WT, hP2X4-WT, and hP2X7-WT constructs used for electrophysiology are similarly unmodified full-length, wild-type receptor constructs with no GFP, protease sites, or affinity tags present. Mutations to the rP2X7-WT construct used for electrophysiology experiments were made directly in the pcDNA3.1x plasmid. These constructs included the following: rP2X7-K297A, rP2X7-K297G, rP2X7-K297M, rP2X7-K297Q, rP2X7-K297V, rP2X7-Y298A, rP2X7-Y298G, rP2X7-Y298V, rP2X7-Y298L, rP2X7-R316A, rP2X7-R316G, rP2X7-R316Q, rP2X7-R316H, rP2X7-F88A, rP2X7-F103A, and rP2X7-Y295A.
(§2) To evaluate the inhibitory response of an antagonist for a dilution series, an initial excitatory signal was evoked at a subtype-specific concentration of ATP. Next, the antagonist was applied at a test concentration for 60 s and then coapplied at the same test concentration of the antagonist with the identical subtype-specific concentration of ATP. The antagonized signal was then normalized against the preceding excitatory signal evoked by ATP for each individual oocyte tested. The pre- and post-antagonist signals were evoked by 10 μM ATP for hP2X1, 10 μM ATP for hP2X2, 1 μM ATP for hP2X3, 50 μM ATP for hP2X4, and 100 μM ATP for P2X7. For the K297V mutation in rP2X7, pre- and post-antagonist signals were evoked by 300 μM ATP. Each dataset was then fit to a nonlinear regression named “[inhibitor] vs. response – Variable slope (four parameters)” in GraphPad Prism 9 to produce a sigmoidal curve and afford an IC50 value. Each singular condition was used to generate an average which is reported plus or minus its SD between three discrete trials.

rP2X7-K297V = target: T3, rP2X7-K297V (Rattus norvegicus, UniProt Q64663, K297V); experiment: TEVC inhibition dose-response, rP2X7-K297V mutant; format: cell-based; details: signals evoked by 300 μM ATP, read-out: IC50 (inhibitory potency), K297V
T3 sequence (Q64663 1-595 K297V): T1 sequence (Q64663 1-595) with K297V
Source text: as §1, §2

Row | Compound | Recovery of activation (% of baseline current) (rP2X7; rP2X7, 40-s IC100 application) | Recovery of activation (% of baseline current) (rP2X7; rP2X7, 120-s IC100 application) | Recovery of activation (% of baseline current) (rP2X7; rP2X7, 240-s IC100 application) | IC50 (rP2X7-F103A) | IC50 (rP2X7-K297V) | inhibition at 625 nM, F103A (rP2X7-F103A; 625 nM antagonist) | inhibition at 30 µM (rP2X7-F103A; 30 µM antagonist)
1 | Clc1cccc(-c2nnnn2Cc2cccnc2)c1Cl [A438079] | 81 ± 5% | 48 ± 15% | 50 ± 11% | > 10000 nM | 110 ± 90 nM | – | –
2 | Clc1cccc(-n2nnnc2NCc2ccccc2Oc2ccccn2)c1Cl [A839977] | 67 ± 6% | 6.7 ± 2% | 1.4 ± 0.3% | > 1000 nM | 3.2 ± 0.6 nM | – | –
3 | O=C(NCC12CC3CC(CC(C3)C1)C2)c1cc(CCCNCCCO)ccc1Cl [AZD9056] | 82 ± 5% | 47 ± 9% | 29 ± 15% | > 10000 nM | 12 ± 1 nM | – | –
4 | CN1C(=O)CC[C@H]1C(=O)NCc1cccc(C(F)(F)F)c1Cl [GSK1482160] | 69 ± 4% | 45 ± 6% | 29 ± 9% | > 20000 nM | 1300 ± 400 nM | – | –
5 | O=C(NCC1(N2CCN(c3ccccc3)CC2)CCOCC1)c1cccnc1Sc1ccccc1 [JNJ47965567] | 1.4 ± 0.2% | 1.6 ± 1% | 2 ± 1% | – | 21 ± 6 nM | 50-80% | –
6 | O=S(=O)(O)c1ccc(N=C2C=CC(=C(c3ccc(Nc4ccc(S(=O)(=O)O)cc4)cc3)c3ccc(Nc4ccc(S(=O)(=O)O)cc4)cc3)C=C2)cc1 [methyl blue] | 53 ± 4% | 15 ± 5% | 4 ± 1% | – | 4000 ± 1000 nM | – | 50 to 75%
